Test results reported in US12297203B2, “Pyrrolopyrimidine ITK inhibitors” (ACLARIS THERAPEUTICS, INC., priority 2018, dated 2025).
pIC50: −log10 of the molar value.

Experiments:
[1] = molecular target: ITK (Homo sapiens (Human), UniProt Q08881); experiment: ITK inhibitor binding potency (LanthaScreen competitive binding assay); conditions: read-out: ITK Inh. IC50
Source text: The ability of candidate compounds to interact with ITK is quantitated by a competitive binding assay using the LanthaScreen technology developed by Life Technologies. This assay is based on the binding of a proprietary, Alexa Fluor® 647-labeled, ATP-competitive kinase inhibitor (kinase tracer-236) to the ITK expression construct in the presence of a Europium-conjugated antibody, resulting in a FRET (fluorescence resonance energy transfer) signal. Displacement of the kinase tracer by compound results in a lower emission ratio upon excitation of the Europium chelate. Candidate compounds are designed as potential irreversible inhibitors of ITK, capable of ligating to an active site cysteine residue resulting in time dependent covalent binding. The time dependent nature of irreversible inhibition is investigated by performing the binding assay with and without a pre-incubation of compound and ITK. […] The inhibitory potency of candidate compounds is measured in 20 mM HEPES pH 7.5, 10 mM MgCl2, 0.01% BSA, 0.0005% Tween-20, and 2% DMSO in the presence of 10 nM ITK, 2 nM Eu-anti-GST antibody, and 50 nM kinase tracer-236 using a 384-well plate format. Background signal is defined in the absence of ITK and uninhibited signal is defined in the presence of vehicle (2% DMSO) alone. Compounds were evaluated in an 11 point dose-response ranging from 20 uM to 0.34 nM. The binding assays are performed under two preincubation conditions to evaluate time dependence of inhibition. For the pre-incubation assay, ITK and Eu-anti-GST antibody are pre-incubated with compound or vehicle for two hours prior to the addition of kinase tracer. The non-preincubated assay is run under conditions where ITK and Eu-anti-GST antibody are added to a mixture of compound and kinase tracer. IC50 values of compounds are determined using a 4 parameter logistical fit of emission ratio as a function of the concentration of compound.

[2] = molecular target: JAK3 (Homo sapiens (Human), UniProt P52333); experiment: JAK3 enzyme activity assay (Caliper mobility shift); type: biochemical; conditions: ATP at Km level; read-out: JAK3 Inh. IC50
Source text: The ability of candidate compounds to interact with JAK3 is quantitated by a mobility shift assay using an LC3000 instrument developed by Caliper Life Sciences. This assay is based on mobility shift electrophoresis, in which fluorescently labelled product and fluorescently labelled substrate peaks are separated and detected independently. JAK3 product/substrate separation is obtained using the following instrument settings: Pressure=−1.4 psi, Downstream voltage=−2550V and Upstream voltage=−800V. The inhibitory potency of candidate compounds of JAK3 is measured in 20 mM HEPES pH 7.5, 10 mM MgCl2, 0.01% BSA, 0.0005% Tween-20, and 2% DMSO in the presence of 2.5 nM JAK3 (Life Technologies Catalog #PV3855), […] (Anaspec Catalog #AS-64106) and […] (Km level) using a 384-well plate format. Background signal is defined in the absence of enzyme and uninhibited signal is defined in the presence of vehicle (2% DMSO) alone. Compounds were evaluated in an 11 point dose-response ranging from […] to 0.34 nM. IC50 values of compounds are determined using a 4 parameter logistical fit of emission ratio as a function of the concentration of compound.

[3] = tested on: ITK phosphorylation of its substrate, PLCγ1, at Y783; experiment: ITK target modulation assay (PLCγ1 Y783 phosphorylation, anti-CD3 stimulated Jurkat T cells); type: cell-based; conditions: Homo sapiens, Jurkat, anti-CD3 Dynabeads stimulation, read-out: PLC-γ Inh. IC50
Method: Target modulation was based upon the ability of a compound to inhibit ITK phosphorylation of its substrate, PLCγ1, at Y783. Human Jurkat T cells (ATCC TIB-152) were plated in V-bottom 96 well plates at 400,000 cells/well in 80 μL medium (RPMI1640 with 10% heat inactivated serum and 55 μM 2-mercaptoethanol and supplemented with glutamine/penicillin/streptomycin). Compounds were added as 10 μL of 10× working stock solutions in medium with 1% DMSO (or medium with 1% DMSO for controls) and placed in a 37° C. incubator with gentle shaking for 1 hour. Stimulation was carried out using anti-CD3 Dynabeads (Invitrogen catalog #1151D) to activate the T cell receptor and mimic antigen presenting cells. Beads were washed and resuspended in medium at 1.84×10^8 beads/ml. Beads were added rapidly to all compound containing and stimulation only wells at 10 μL/well (bead:cell=2:1) with gentle mixing of the bead source between each addition. Wells designated ‘unstimulated’ received 10 μL of media only. The plate was immediately sealed with a plate seal and cells pelleted at 400× g for 4 minutes. Media was removed using a multichannel aspirator, 25 μL of cold hypotonic lysis buffer (VWR M334-100 ml) plus 1×HALT Protease Inhibitor Cocktail (ThermoFisher #78437), 1× Phosphatase Inhibitor Cocktail 2 (Sigma Aldrich #P5726), 1× Phosphatase Inhibitor Cocktail 3 (Sigma Aldrich #P0044) and 2 mM PMSF was added per well. Cells were incubated on ice for 30 minutes to swell the cells then lysed by pipetting 20 times using a multichannel pipet. The plates were then resealed and centrifuged for 5 minutes at 400× g to pellet the cellular debris. Two μL of the soluble component of each sample was spotted onto nitrocellulose and allowed to dry for 30 minutes. Nitrocellulose was wet in 1× Tris Buffer Saline (20 mM Tris pH7.5, 150 mM NaCl) then blocked in LiCOR Odyssey Blocking Buffer (TBS) (LiCOR #927-50000) for 1 hour at room temperature with rocking. Following blocking, nitrocellulose was incubated in LiCOR Odyssey Blocking Buffer (TBS) plus 0.2% Tween20 plus anti-phospho-PLCγ1 (Y783) antibody (CST #2821S) at 1:1000 and anti-PLCγ1 (Abcam #41433) at 1:5000 with gentle rocking overnight at 4° C. Nitrocellulose was then washed four times for 5 minutes each with TBS plus 0.1% Tween20 (TBST) then incubated in LiCOR Odyssey Blocking Buffer (TBS) plus 0.2% Tween20 plus secondary antibodies IRDye 800CW (LiCOR 926-32211) and IRDye 680RD (LiCOR 926-68070) both at 1:15,000 with gentle rocking at room temperature in the dark for 1 hour. Nitrocellulose was then washed four times for 5 minutes each with TBST at room temperature in the dark. A final rinse with TBS was done prior to imaging and quantifying using the LiCOR Odyssey Imager and software respectively.

[4] = tested on: JAK1/3 phosphorylation of its substrate, STAT5, at Y694; experiment: JAK1/3 target modulation assay (IL-2 stimulated STAT5 Y694 phosphorylation in PBMC); type: cell-based; conditions: Homo sapiens, PBMC, Primary human peripheral blood mononuclear cells, IL-2 25 ng/mL; read-out: IL2-STAT5 Inh. IC50
Method: Target modulation was based upon the ability of a compound to inhibit JAK1/3 phosphorylation of its substrate, STAT5, at Y694. Primary human peripheral blood mononuclear cells were plated in V-bottom 96 well plates at 200,000 cells/well in 120 μL medium (RPMI-1640 with 10% fetal bovine serum, 10 mM HEPES buffer, 12.2 mM 2-mercaptoethanol, and supplemented with glutamine/penicillin/streptomycin). Compounds were added as 15 μL of 10× working stock solutions in medium with 1% DMSO (or medium with 1% DMSO for controls) and placed in a 37° C. incubator with gentle shaking for 1 hour. Stimulation was carried out using recombinant human IL-2 (R&D Systems #202-IL-050) to activate JAK1/3. IL-2 stock solution was diluted in media to 250 ng/mL and was added rapidly to all compound containing and stimulation only wells at 15 μL/well (final concentration=25 ng/mL). Wells designated ‘unstimulated’ received 15 μL of media only. The plate was placed back in a 37° C. incubator with gentle shaking for 5 minutes. After stimulation, the plates were immediately sealed with a plate seal, and cells pelleted at 400× g for 5 minutes. Media was removed using a multichannel aspirator, and 75 μL of cold Tris lysis buffer (MSD #R60TX-3) plus 1× Protease Inhibitor Solution (MSD #R70AA-1), 1× Phosphatase Inhibitor I (MSD #R70AA-1), and 1× Phosphatase Inhibitor II (MSD #R70AA-1) was added per well. Cells were incubated at 4° C. with gentle shaking for at least 30 minutes to allow for complete lysis. The plates were removed from 4° C., and 25 μL of lysate from each well was added to the corresponding well on the MSD plate. Samples were analyzed by either an MSD multiplex kit for Phospho-STAT5a,b/Total-STAT5a,b (MSD #K15163D) or an MSD single-plex kit for Phospho-STAT5a,b (MSD #K150IGD). The protocols for the respective kits were followed, and the plates were read on the MSD SECTOR S 600.

Sequence of ITK (Q08881 whole entry): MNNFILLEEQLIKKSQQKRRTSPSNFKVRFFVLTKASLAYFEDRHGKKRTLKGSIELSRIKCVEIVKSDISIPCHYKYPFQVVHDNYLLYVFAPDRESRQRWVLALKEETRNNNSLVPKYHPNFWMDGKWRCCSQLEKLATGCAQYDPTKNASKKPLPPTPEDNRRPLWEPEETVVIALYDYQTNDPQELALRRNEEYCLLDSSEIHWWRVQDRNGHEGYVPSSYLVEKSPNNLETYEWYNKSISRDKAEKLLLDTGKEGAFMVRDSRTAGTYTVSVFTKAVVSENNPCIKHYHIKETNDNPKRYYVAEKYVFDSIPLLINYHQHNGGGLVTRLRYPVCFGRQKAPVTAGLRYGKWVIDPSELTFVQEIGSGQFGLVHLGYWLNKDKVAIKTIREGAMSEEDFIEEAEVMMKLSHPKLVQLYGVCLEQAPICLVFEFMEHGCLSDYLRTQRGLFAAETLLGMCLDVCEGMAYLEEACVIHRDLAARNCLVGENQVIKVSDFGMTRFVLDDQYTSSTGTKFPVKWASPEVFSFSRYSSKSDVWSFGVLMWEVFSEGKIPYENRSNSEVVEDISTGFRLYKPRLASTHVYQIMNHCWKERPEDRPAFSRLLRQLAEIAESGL
Sequence of JAK3 (P52333 781-1124): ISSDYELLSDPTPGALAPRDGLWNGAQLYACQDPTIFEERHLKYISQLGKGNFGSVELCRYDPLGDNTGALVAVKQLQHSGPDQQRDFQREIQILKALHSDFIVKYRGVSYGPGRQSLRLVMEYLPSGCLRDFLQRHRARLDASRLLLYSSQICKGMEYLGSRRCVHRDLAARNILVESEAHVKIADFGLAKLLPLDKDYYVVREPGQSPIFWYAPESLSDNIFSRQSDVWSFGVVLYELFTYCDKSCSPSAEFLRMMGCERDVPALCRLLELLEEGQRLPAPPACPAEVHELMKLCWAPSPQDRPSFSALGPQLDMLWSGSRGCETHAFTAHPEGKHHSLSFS

Structure (SMILES) | pIC50 [1] | pIC50 [2] | pIC50 [3] | pIC50 [4]
C=CC(=O)N1C[C@H](Nc2ncnc3[nH]cc([C@H]4CC4(F)F)c23)CC[C@@H]1C(C)C (single isomer, unassigned) [Example 63] | < 7.00 | < 7.00 | < 6.00 | < 6.00
C=CC(=O)N1C[C@H](Nc2ncnc3[nH]cc([C@@H]4CC4(F)F)c23)CC[C@@H]1C(C)C (single isomer, unassigned) [Example 64] | < 7.00 | < 7.00 | < 6.00 | < 6.00
C=CC(=O)N1C[C@@H](Nc2ncnc3[nH]cc([C@H]4CC4(F)F)c23)CC[C@H]1C(C)C (single isomer, unassigned) [Example 65] | ≥ 8.00 | ≥ 8.00 | ≥ 7.00 | 6.00 to 7.00
C=CC(=O)N1C[C@@H](Nc2ncnc3[nH]cc([C@@H]4CC4(F)F)c23)CC[C@H]1C(C)C (single isomer, unassigned) [Example 66] | 7.00 to 8.00 | 7.00 to 8.00 | 6.00 to 7.00 | < 6.00
C=CC(=O)N1C[C@H](Nc2ncnc3[nH]cc([C@H]4CC4(F)F)c23)CC[C@@H]1CC (single isomer, unassigned) [Example 67] | < 7.00 | < 7.00 | < 6.00 | < 6.00
C=CC(=O)N1C[C@H](Nc2ncnc3[nH]cc([C@@H]4CC4(F)F)c23)CC[C@@H]1CC (single isomer, unassigned) [Example 68] | ≥ 8.00 | ≥ 8.00 | ≥ 7.00 | ≥ 7.00
C=CC(=O)N1C[C@@H](Nc2ncnc3[nH]cc([C@H]4CC4(F)F)c23)CC[C@H]1CC (single isomer, unassigned) [Example 69] | 7.00 to 8.00 | 7.00 to 8.00 | 6.00 to 7.00 | < 6.00
C=CC(=O)N1C[C@@H](Nc2ncnc3[nH]cc([C@@H]4CC4(F)F)c23)CC[C@H]1CC (single isomer, unassigned) [Example 70] | ≥ 8.00 | ≥ 8.00 | 6.00 to 7.00 | 6.00 to 7.00
C=C(C)C(=O)N1C[C@H](Nc2ncnc3[nH]cc([C@@H]4CC4(F)F)c23)CC[C@@H]1C (single isomer, unassigned) [Example 71] | < 7.00 | < 7.00 | < 6.00 | < 6.00
C=CC(=O)N1C[C@H](Nc2ccnc3[nH]cc([C@H]4CC4(F)F)c23)CC[C@@H]1C (single isomer, unassigned) [Example 73] | ≥ 8.00 | ≥ 8.00 | ≥ 7.00 | ≥ 7.00
C=CC(=O)N1C[C@H](Nc2ccnc3[nH]cc([C@@H]4CC4(F)F)c23)CC[C@@H]1C (single isomer, unassigned) [Example 74] | ≥ 8.00 | ≥ 8.00 | 6.00 to 7.00 | 6.00 to 7.00
C=CC(=O)N1C[C@H](Nc2ccnc3[nH]cc([C@H]4C[C@@H]4COC)c23)CC[C@@H]1C (single isomer, unassigned) [Example 76] | < 7.00 | 7.00 to 8.00 | < 6.00 | < 6.00
C=CC(=O)N1C[C@H](Nc2ccnc3[nH]cc([C@@H]4C[C@H]4COC)c23)CC[C@@H]1C (single isomer, unassigned) [Example 77] | ≥ 8.00 | ≥ 8.00 | 6.00 to 7.00 | 6.00 to 7.00
C=CC(=O)N1CCC[C@@H](Nc2ncnc3[nH]cc([C@]45CCC[C@H]4C5(F)F)c23)C1 (single isomer, unassigned) [Example 80] | 7.00 to 8.00 | ≥ 8.00 | < 6.00 | < 6.00
C=CC(=O)N1CCC[C@@H](Nc2ncnc3[nH]cc(C(=O)OCC)c23)C1 [Example 1, ethyl (R)-4-((1-acryloylpiperidin-3-yl)amino)-7H-pyrrolo[2,3-d]pyrimidine-5-carboxylate] | ≥ 8.00 | ≥ 8.00 | < 6.00 | 6.00 to 7.00
C=CC(=O)N1C[C@H](Nc2ncnc3[nH]cc(C(=O)OCC)c23)CC[C@@H]1C [Example 2, ethyl 4-(((3R,6S)-1-acryloyl-6-methylpiperidin-3-yl)amino)-7H-pyrrolo[2,3-d]pyrimidine-5-carboxylate] | ≥ 8.00 | ≥ 8.00 | 6.00 to 7.00 | 6.00 to 7.00
